Experimental data published in patent publication US11919885B1, “4-(4-bromophenyl)-2-alkyloxy-6-(2-oxo-2H-1-benzopyran-3-yl)pyridine-3-carbonitrile as antimicrobial compounds” (KING FAISAL UNIVERSITY, priority 2023, dated 2024).

Key:
Type in all cases: cell-based
[1] = test system: Chrysosporium keratinophilum; test: Agar plate disc-diffusion, antifungal activity (inhibition zone); conditions: Sabouraud's dextrose agar, 37° C., 72 h, DMSO control zone subtracted; for inhibition zone, Chrysosporium keratinophilum, A: A = concentration of comp. = 10,000 μL; for inhibition zone, Chrysosporium keratinophilum, B: B = concentration of comp. = 30.000 μL; for inhibition zone, Chrysosporium keratinophilum, C: C = concentration of comp. = 50,000 μL
Experimental: (§1) The agar plate disc-diffusion method was applied. Sterilized filter papers (6 mm in diameter) were wetted with 10 μL of a solution of 4-(4-Bromophenyl)-2-ethoxy-6-(2-oxo-2H-1-benzopyran-3-yl)-4-phenylpyridine-3-carbonitrile (1) or 4-(4-Bromophenyl)-2-methoxy-6-(2-oxo-2H-1-benzopyran-3-yl)-4-phenylpyridine-3-carbonitrile (2) to be tested, containing […], and the discs were allowed to air dry. The discs were then placed onto the surface of agar plates (nutrient agar for bacteria and Sabouraud's dextrose agar for fungi) seeded with the test organism. Each plate contained 15 mL of the agar medium, previously seeded with 0.2 mL of the broth culture of each organism pregrown for 18 hours. The plates were incubated at 37° C. for 48 h, and 72 h for fungi. The inhibition zones were measured in mm. Discs impregnated with DMSO were used as a control, and its inhibition zone was subtracted from the tested compound actual inhibition zone.
(§2) The results of the antimicrobial testing can be observed in Tables 1 and 2, below, using ciprofloxacin as a reference.

Aspergillus flavus = test: as above; conditions: Sabouraud's dextrose agar, 37° C., 72 h, DMSO control zone subtracted; for inhibition zone, Aspergillus flavus, A: A = concentration of comp. = 10,000 μL; for inhibition zone, Aspergillus flavus, B: B = concentration of comp. = 30.000 μL; for inhibition zone, Aspergillus flavus, C: C = concentration of comp. = 50,000 μL
Experimental: as §1, §2

Staphylococcus aureus = test: Agar plate disc-diffusion, antibacterial activity (inhibition zone); conditions: nutrient agar, 37° C., 48 h, DMSO control zone subtracted; for inhibition zone, Staphylococcus aureus, A: A = concentration of comp. = 10,000 μL; for inhibition zone, Staphylococcus aureus, B: B = concentration of comp. = 30.000 μL; for inhibition zone, Staphylococcus aureus, C: C = concentration of comp. = 50,000 μL
Experimental: as §1, §2

Escherichia coli = test: as above; conditions: nutrient agar, 37° C., 48 h, DMSO control zone subtracted; for inhibition zone, Escherichia coli, A: A = concentration of comp. = 10,000 μL; for inhibition zone, Escherichia coli, B: B = concentration of comp. = 30.000 μL; for inhibition zone, Escherichia coli, C: C = concentration of comp. = 50,000 μL
Experimental: as §1, §2

Pseudomonas aeruginosa = test: as above; conditions: nutrient agar, 37° C., 48 h, DMSO control zone subtracted; for inhibition zone, Pseudomonas aeruginosa, A: A = concentration of comp. = 10,000 μL; for inhibition zone, Pseudomonas aeruginosa, B: B = concentration of comp. = 30.000 μL; for inhibition zone, Pseudomonas aeruginosa, C: C = concentration of comp. = 50,000 μL
Experimental: as §1, §2

Bacillus cereus = test: as above; conditions: nutrient agar, 37° C., 48 h, DMSO control zone subtracted; for inhibition zone, Bacillus Cereus, A: A = concentration of comp. = 10,000 μL; for inhibition zone, Bacillus Cereus, B: B = concentration of comp. = 30.000 μL; for inhibition zone, Bacillus Cereus, C: C = concentration of comp. = 50,000 μL
Experimental: as §1, §2

| Structure (SMILES) | inhibition zone, Chrysosporium keratinophilum, A [1] | inhibition zone, Chrysosporium keratinophilum, B [1] | inhibition zone, Chrysosporium keratinophilum, C [1] | inhibition zone, Aspergillus flavus, A (Aspergillus flavus) | inhibition zone, Aspergillus flavus, B (Aspergillus flavus) | inhibition zone, Aspergillus flavus, C (Aspergillus flavus) | inhibition zone, Staphylococcus aureus, A (Staphylococcus aureus) | inhibition zone, Staphylococcus aureus, B (Staphylococcus aureus) | inhibition zone, Staphylococcus aureus, C (Staphylococcus aureus) | inhibition zone, Escherichia coli, A (Escherichia coli) | inhibition zone, Escherichia coli, B (Escherichia coli) | inhibition zone, Escherichia coli, C (Escherichia coli) | inhibition zone, Pseudomonas aeruginosa, A (Pseudomonas aeruginosa) | inhibition zone, Pseudomonas aeruginosa, B (Pseudomonas aeruginosa) | inhibition zone, Pseudomonas aeruginosa, C (Pseudomonas aeruginosa) | inhibition zone, Bacillus Cereus, A (Bacillus cereus) | inhibition zone, Bacillus Cereus, B (Bacillus cereus) | inhibition zone, Bacillus Cereus, C (Bacillus cereus) |
| --- | --- | --- | --- | --- | --- | --- | --- | --- | --- | --- | --- | --- | --- | --- | --- | --- | --- | --- |
| O=C(O)c1cn(C2CC2)c2cc(N3CCNCC3)c(F)cc2c1=O [Cip., ciprofloxacin, reference compound] | 29 mm | 30 mm | 53 mm | 29 mm | 30 mm | 42 mm | 43 mm | 44 mm | 53 mm | 30 mm | 39 mm | 60 mm | 29 mm | 30 mm | 53 mm | 29 mm | 30 mm | 42 mm |
| CCOc1nc(-c2cc3ccccc3oc2=O)cc(-c2ccc(Br)cc2)c1C#N [Compound 1, 4-(4-Bromophenyl)-2-ethoxy-6-(2-oxo-2H-1-benzopyran-3-yl)pyridine-3-carbonitrile] | 24 mm | 29 mm | 42 mm | 28 mm | 30 mm | 41 mm | 20 mm | 25 mm | 35 mm | 30 mm | 40 mm | 50 mm | 25 mm | 30 mm | 39 mm | 30 mm | 34 mm | 40 mm |
| COc1nc(-c2cc3ccccc3oc2=O)cc(-c2ccc(Br)cc2)c1C#N [Compound 2, 4-(4-Bromophenyl)-2-methoxy-6-(2-oxo-2H-1-benzopyran-3-yl)pyridine-3-carbonitrile] | 25 mm | 28 mm | 40 mm | 20 mm | 21 mm | 31 mm | 15 mm | 22 mm | 30 mm | 29 mm | 37 mm | 48 mm | 27 mm | 33 mm | 40 mm | 25 mm | 32 mm | 37 mm |
